Legend:
HT4 neuronal cells = assay: Cells' ability to retain the reduced forms (DTNB efflux assay), HT4 neuronal cells; format: cell-based, mouse; conditions: 0.1 mM LA or LA-PLUS, FIG. 6B
Description: (§1) Jurkat T cells or neuronal HT4 cells were incubated with LA (0.1 mM) or LA-PLUS (0.1 mM). The medium of the cells was replaced by phosphate buffer saline that contained 250 uM of 5,5′-dithiobis-(2-nitrobenzoic acid) (DTNB). The free thiols in the medium were trapped by the DTNB and absorption was measured at 420 nm at different time intervals.
(§2) The efflux of DHLA and DHLA-PLUS from cells was measured in the medium of cells in culture. The medium was composed of PBS and DTNB. […] An illustration of how LA-PLUS crosses biological barriers such as membranes (also showing retention of DHLA-PLUS inside the cell) is given in FIG. 7.

Jurkat T cells = assay: Cells' ability to retain the reduced forms (DTNB efflux assay), Jurkat T cells; format: cell-based; conditions: 0.1 mM LA or LA-PLUS, FIG. 6A
Description: as §1, §2

HT4 cells [1] = assay: Cell viability by LDH leakage after glutamate treatment; format: cell-based, mouse; conditions: 10 mM glutamate, FIG. 2
Description: (§3) HT-4 cells (mouse hippocampal cell line) were purchased from American Type Culture Collection (ATCC, Bethesda, Md.). All experiments reported here were carried out with 10 mM glutamate.
(§4) HT4 cells were grown in DMEM supplemented with 10% serum and 100 U/ml penicillin-streptomycin at 37° C. in a humidified atmosphere containing 95% air/5% CO2.
(§5) All experiments were performed under the following protocol. Cells were allowed to grow to confluency, were trypsinized and subcultured in culture dishes at a concentration of 375,000 cells per millititer. The cells were continually cultured at 37° C. and were allowed to grow for 24 h, and then were exposed to glutamate treatment.
Cell viability was assayed using lactate dehydrogenase (LDH) leakage. After completion of the experiments, culture medium was removed from plates and centrifuged (500 g×5 min). The cells that detached from the monolayer following glutamate treatment were separated by centrifugation of the growth medium. […] LDH activity was measured from the samples spectophotometrically within two days of storage. Cell viability was determined using the following formula: viability=attached cell LDH activity/total LDH activity (medium+detached cell LDH activity+attached cell LDH activity).

L6 myoblasts = assay: Glucose uptake by L6 rat muscle derived cells; format: cell-based; conditions: 1 h pretreatment; FIG. 4
Description: L6 cells were obtained from American Type Culture Collection (MD). Dulbecco's Phosphate Buffered Saline (DPBS) and Dulbecco's Modified Eagle Medium (DMEM) supplemented with high glucose, L-glutamine, pyridoxine hydrochloride and 110 mg/l sodium pyruvate were obtained from GIBCO BRL (Life Technologies NY). Fetal calf serum (FCS) and other reagents for the culture medium were obtained from the cell culture facility of the University of California-San Francisco. Undifferentiated mononucleated cells (myoblasts) were used in this study. For experiments, cells were seeded at a concentration of 0.2×10^6 cells per well in 6-well flat bottom tissue culture treated polystyrene plates (FALCON, Becton Dickinson Labware, NJ). Cultures were grown in DMEM supplemented with 10% FCS, 5 mM glutamine, 0.3% D-glucose, 50 U/ml of penicillin, and […] of streptomycin, in humidified air containing 5% CO2 at 37° C. Cell viability was greater than 97% as estimated by trypan blue exclusion or propidium iodide staining. The cells were split once every third day. All experiments were carried out on cells (6th to 12th passage) in the third day of the last passage. Cells seeded in 6-well plates were washed thrice with 1 ml transport suffer (140 mM NaCl, 5 mM KCl, 2.5 mM MgCl2, 1 mM CaCl2 in 20 mN tris-HEPES, pH 7.4) at room temperature. […] Radioactivity in each sample was read using a scintillation counter.

ICAM-1 = assay: PMA-induced ICAM-1 expression in ECV endothelial cells (flow cytometry); format: cell-based, human; conditions: same concentration; 20 nM PMA, 24 h; FIG. 3
Description: EV304 (ECV), a spontaneously transformed immortal human endothelial cell line established from the vein of an apparently normal human umbilical cord, were obtained from ATCC (Bethesda, Md.). ECV cells were grown in medium 199 supplemented with 10% fetal calf serum, 100 U/ml penicillin and 100 μg/ml streptomycin. Cells were maintained in a standard culture incubator with humidified air containing 5% CO2 at 37° C. ECV monolayers were pretreated with LA or LA-PLUS for the time period indicated in the respective figure legend. Following the pretreatment, cells were activated using 20 nM PMA for 24 h. […] Appropriate isotypic controls were used for background fluorescence in the ICAM-1 assay. The fluorescence and light scattering properties (forward scatter, FS; side scatter, SS) of the cells were determined by using an EPICS-Elite (Coulter, Miami, Fla.) flow cytometer. Cells with FITC-conjugated antibodies were excited using a 488 nm argon ion laser and emission of FTIC was recorded at 525 nm. […] A logarithmic scale was used to measure both background and endothelial cell fluorescence. Background fluorescence was then subtracted from endothelial cell fluorescence, allowing linear comparisons of ICAM-1 expression between various samples.

HT4 cells [2] = assay: Flow cytometric assay of fragmented DNA (glutamate-induced apoptosis); format: cell-based, mouse; conditions: 10 mM glutamate, 24 h, FIG. 1
Description: as §3, §4, §5
HT4 cells were exposed to 10 mM glutamate for 24 h with and without antioxidants. […] The permeablized cells were kept in the dark for 6 h at 4° C. and their DNA integrity was analyzed using a flow cytometer (XL, Coulter, FL) with argon-ion laser (excitation 488 nm) and the 575 nm emission was recorded in fluorescence channel 1 (FL1). […]
The pathway of cell death was explored by staining the cells for 6 h following the glutamate treatment with a DNA-binding fluorescent dye, propidum iodide (PI) in cells permeabilised with a low concentration of detergent (Triton X-100 0.1% w/v). […] The cells were analyzed by flow cytometry.

O=C(O)CCCC[C@@H](S)CCS (racemic) [DHLA, dihydrolipoate]
efflux of reduced form from cells / retention inside cells (HT4 neuronal cells): effluxed from the cell faster than DHLA-PLUS
efflux of reduced form from cells / retention inside cells (Jurkat T cells): effluxed from the cell faster than DHLA-PLUS

O=C(O)CCCCC1CCSS1 (centres unmarked) [LA, 1,2-dithiolane-3-pentanoic acid, reference compound]
protection of HT4 cells against glutamate cytotoxicity (viability) (HT4 cells [1]; 100 μM compound): did not provide total protection

CN(C)CCNC(=O)CCCCC1CCSS1.Cl (centres unmarked) [LA-PLUS, N,N-Dimethyl-N-2-Amidoethyl Lipoate (HCl)]
enhancement of glucose uptake compared to LA (L6 myoblasts): clearly more effective than LA
down-regulation of PMA induced ICAM-1 expression compared to LA (ICAM-1): much more effectively down-regulated
efficiency in protecting HT4 cells compared to lipoic acid (HT4 cells [1]): more efficient in protecting the HT4 cells than lipoic acid
glutamate-induced apoptotic process (cell shrinkage, DNA fragmentation) (HT4 cells [2]; 50 μM compound): completely blocked
anti-apoptotic effect compared to LA (HT4 cells [2]): much more pronounced compared to the effect of LA
